Results as given in publication PMC4222822, “Discovery and Characterization of a Potent and Selective Inhibitor of Aedes aegypti Inward Rectifier Potassium Channels” (PLoS ONE, 2014).
Like-named read-outs stand apart in the source and are kept apart here.

Assays:
AeKir1 = AeKir1 (Aedes aegypti, UniProt L0EQS9); assay: Tl+ flux assay in T-REx-HEK293-AeKir1 cells; type: cell-based; settings: for IC50: read-out: IC50±SEM
Experimental: Tl^+ flux assays were performed essentially as described previously, [18], [19]. Briefly, stably transfected T-Rex-HEK-293 cells expressing AeKir1 channels were cultured overnight in 384-well plates (20,000 cells/20 µL/well black-walled, clear-bottomed BD PureCoat amine-coated plates (BD, Bedford, MA) with a plating media containing DMEM, 10% dialyzed FBS and 1 µg/mL tetracycline. The next day, the cell culture medium was replaced with a dye-loading solution containing assay buffer (Hanks Balanced Salt Solution with 20 mM HEPES, pH 7.3), 0.01% (w/v) Pluronic F-127 (Life Technologies, Carlsbad, CA), and 1.2 µM of the thallium-sensitive dye Thallos-AM (TEFlabs, Austin, TX). Following 1 hr incubation at room temperature, the dye-loading solution was washed from the plates and replaced with 20 µL/well of assay buffer. The plates were transferred to a Hamamatsu Functional Drug Screening System 6000 (FDSS6000; Hamamatsu, Hamamatsu (or Bridgewater, NJ), Japan) where 20 µL/well of test compounds in assay buffer (as prepared below) were added and allowed to incubate with the cells for 20 min. After the incubation period, a baseline recording was collected at 1 Hz for 10 s (excitation 470±20 nm, emission 540±30 nm) followed by a Tl^+ stimulus buffer addition (10 µL/well) and data collection for an additional 4 min. The Tl^+ stimulus buffer contains in (mM) 125 NaHCO3, 1.8 CaSO4, 1 MgSO4, 5 glucose, 12 Tl2SO4, 10 HEPES, pH 7.4. For Tl^+ flux assays on the mammalian channels Kir2.x, Kir4.1 and Kir6.2/SUR1 expressing cells, the Tl^+ stimulus buffer contained 1.8 mM Tl2SO4. Also, Tl^+ flux assays on Kir3.1/3.2/mGlu8 expressing cell, required addition of an EC80 concentration of glutamate (Sigma-Aldrich, St. Louis, MO) with the Tl^+ stimulus buffer. The test compounds were transferred to daughter polypropylene 384-well plates (Greiner Bio-One, Monroe, NC) using an Echo555 liquid handler (Labcyte, Sunnyvale, CA), and then diluted into assay buffer to generate a 2X stock in 0.6% DMSO (0.3% final). For Tl^+ flux assays on Kir6.2/SUR1 expressing cells, test compounds were diluted in assay buffer containing diazoxide (250 µM final) to induce channel activation. Concentration-response curves (CRCs) were generated by screening compounds at 3-fold dilution series in 4-point (1 µM–30 µM) or 11-point (1 nM–30 µM) CRCs. Tl^+ flux data were analyzed as previously described, [21], [22] using a combination of Excel (Microsoft Corp, Redmond, WA) with XLfit add-in (IDBS, Guildford, Surrey, UK) and OriginPro (OriginLab, Northampton, MA) software. Raw data were opened in Excel and each data point in a given trace was divided by the first data point from that trace (static ratio) followed by subtraction of data points from control traces generated in the presence of vehicle controls. The slope of the fluorescence increase beginning 5 s after Tl^+ addition and ending 15 s after Tl^+ addition was calculated. To compare the effect of DMSO on AeKir1-mediated Tl^+ flux, a one-way ANOVA was performed with a Tukey's multiple comparison test. Prism software (GraphPad Software) was used to generate CRC from Tl^+ flux. Half-inhibition concentration (IC50) values were calculated from fits using a four parameter logistic equation.

mosquitoes = assay: Toxicity when applied to the cuticle (topical); type: in vivo; settings: Piermarini, unpublished observations
AeKir2B = AeKir2B (Aedes aegypti, UniProt L0EQ40); set-up: method as in PMID 24959745; settings: cited from earlier work
[1] = system: adult female mosquitoes (A. aegypti); set-up: method as in PMID 23734226, PMID 24959745; settings: within 24 h; cited from earlier work
[2] = system: adult female mosquitoes (A. aegypti); set-up: method as in PMID 23734226, PMID 24959745; settings: after loading hemolymph with 900 nl of a PBS vehicle; cited from earlier work
[3] = system: adult female mosquitoes (A. aegypti); assay: Mosquito excretion experiments (excretory capacity); type: in vivo, Aedes aegypti; settings: probenecid 3.4 nmol per mosquito in 900 nL vehicle, 1 h after injection; mean ±SEM
Experimental: The Aedes aegypti mosquito colony used in the present study is identical to that described previously. As before, only adult female mosquitoes 3–10 days post emergence were utilized for experiments.
The excretory capacity of mosquitoes was measured as described. In brief, after anesthetizing mosquitoes on ice, their hemolymph was injected as described above with 900 nL of a K^+-PBS vehicle containing 1.15% DMSO, 0.077% β-cyclodextrin, and 0.008% Solutol, or the vehicle containing VU625 (0.77 mM) to deliver a dose of 690 pmol of VU625 per mosquito. In experiments where probenecid was used, the vehicle was supplemented with water- soluble probenecid […] to deliver a dose of 3.4 nmol of probenecid per mosquito. After injection, the mosquitoes were placed immediately in a graduated, packed-cell volume tube (MidSci, St. Louis, MO; 5 mosquitoes per tube) and held at 28°C. The volume of urine excreted at 60 min post injection was measured as described previously, and all mosquitoes were confirmed to be alive at the end of 60 min period. For each treatment, 6–18 independent trials of 5 mosquitoes per treatment were performed.
Prism (GraphPad Software) was used to generate a dose-response curve for the toxicity of VU625; the doses (x-axis) were first log transformed and then the mortality data was normalized using Prism, where the smallest value and largest values in a data set equal ‘0%’ and ‘100%’, respectively. The data were then fitted using a ‘biphasic’ algorithm (<100 constraint) to calculate potencies (ED25 and ED75 values). To compare 1) the toxic effects among the vehicle, probenecid, VU625, and VU625 + probenecid treatments, and 2) the excretory capacity among the vehicle, probenecid, VU625, and VU625 + probenecid treatments, one-way ANOVAs were performed with Newman-Keuls posttests.

[4] = Table 2, southern amide SAR, 11-point CRCs on AeKir1 in Tl+ flux, triplicate on two separate days
[5] = Table 3, central core SAR, 11-point CRCs on AeKir1 in Tl+ flux, triplicate on two separate days

Sequence of AeKir1 (L0EQS9 entry or part of it): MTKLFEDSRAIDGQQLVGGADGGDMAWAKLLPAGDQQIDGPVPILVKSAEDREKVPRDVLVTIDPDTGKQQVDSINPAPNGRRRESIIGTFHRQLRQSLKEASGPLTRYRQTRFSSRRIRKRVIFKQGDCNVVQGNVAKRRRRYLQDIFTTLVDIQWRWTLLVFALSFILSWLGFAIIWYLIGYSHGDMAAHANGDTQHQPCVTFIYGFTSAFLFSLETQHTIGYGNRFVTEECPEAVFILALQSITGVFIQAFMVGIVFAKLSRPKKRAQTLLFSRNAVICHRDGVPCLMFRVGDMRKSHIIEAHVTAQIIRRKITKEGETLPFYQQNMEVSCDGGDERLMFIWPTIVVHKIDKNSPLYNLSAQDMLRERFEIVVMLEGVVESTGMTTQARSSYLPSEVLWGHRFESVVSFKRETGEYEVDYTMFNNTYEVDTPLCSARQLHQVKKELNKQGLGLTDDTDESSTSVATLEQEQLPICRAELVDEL
Sequence of AeKir2B (L0EQ40 entry or part of it): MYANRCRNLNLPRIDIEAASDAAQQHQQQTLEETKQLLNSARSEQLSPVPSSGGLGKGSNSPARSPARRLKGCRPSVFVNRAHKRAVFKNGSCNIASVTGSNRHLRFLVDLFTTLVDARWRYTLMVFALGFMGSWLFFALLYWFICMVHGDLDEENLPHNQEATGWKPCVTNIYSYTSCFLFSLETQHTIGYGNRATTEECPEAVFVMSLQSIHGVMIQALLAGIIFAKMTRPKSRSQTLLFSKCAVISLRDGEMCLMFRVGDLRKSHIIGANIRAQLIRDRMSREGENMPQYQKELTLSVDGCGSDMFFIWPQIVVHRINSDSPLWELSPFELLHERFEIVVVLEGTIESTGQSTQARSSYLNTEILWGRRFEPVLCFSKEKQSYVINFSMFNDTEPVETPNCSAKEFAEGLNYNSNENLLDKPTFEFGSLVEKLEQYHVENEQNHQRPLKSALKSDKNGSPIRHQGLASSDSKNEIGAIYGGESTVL

Row | Compound | IC50 (AeKir1; [4]) | IC50 (AeKir1; [5]) | also measured
1 | COc1cccc(NS(=O)(=O)c2ccc3c(c2)CC(C)N3C(=O)C(F)(F)F)c1 (stereo not shown) [3b] | 580 ± 40 nM |  | 
2 | COc1cccc(NS(=O)(=O)c2ccc3c(c2)CC(C)N3C(=O)c2cccc(F)c2)c1 (stereo not shown) [3c] | 5200 ± 400 nM |  | 
3 | COc1cccc(NS(=O)(=O)c2ccc3c(c2)CC(C)N3C(=O)c2ccccc2C)c1 (stereo not shown) [3d] | 4410 ± 1110 nM |  | 
4 | COc1cccc(NS(=O)(=O)c2ccc3c(c2)CC(C)N3C(=O)c2cccc(C)c2)c1 (stereo not shown) [3e] | 3870 ± 1970 nM |  | 
5 | COc1cccc(NS(=O)(=O)c2ccc3c(c2)CC(C)N3C(=O)c2ccc(C)cc2)c1 (stereo not shown) [3f] | > 30000 nM |  | 
6 | COc1cccc(NS(=O)(=O)c2ccc3c(c2)CC(C)N3C(=O)c2ccccn2)c1 (stereo not shown) [3g] | 4400 ± 500 nM |  | 
7 | COc1cccc(NS(=O)(=O)c2ccc3c(c2)CC(C)N3S(=O)(=O)c2ccccc2)c1 (stereo not shown) [3h] | 3290 ± 890 nM |  | IC50±SEM (AeKir1; [4]): less activity
8 | COc1cccc(NS(=O)(=O)c2ccc3c(c2)CC(C)N3C(=O)N(C)C)c1 (stereo not shown) [3i] | 2090 ± 490 nM |  | 
9 | COc1cccc(NS(=O)(=O)c2ccc3c(c2)CC(C)N3S(C)(=O)=O)c1 (stereo not shown) [3j] | 2820 ± 480 nM |  | 
10 | COc1cccc(NS(=O)(=O)c2ccc3c(c2)CC(C)N3S(=O)(=O)C2CC2)c1 (stereo not shown) [3k] | 760 nM |  | 
11 | COc1cccc(NS(=O)(=O)c2ccc3c(c2)CC(C)N3S(=O)(=O)C(C)(C)C)c1 (stereo not shown) [3l] | 820 ± 480 nM |  | 
12 | COc1cccc(NS(=O)(=O)c2ccc3c(ccn3C)c2)c1 [4a] |  | 550 ± 80 nM | 
13 | COc1cccc(NS(=O)(=O)c2ccc3c(c2)cc(C)n3C)c1 [4b] |  | 970 ± 100 nM | 
14 | COc1cccc(NS(=O)(=O)c2ccc3c(c2)CCC(=O)N3)c1 [4c] |  | > 30000 nM | 
15 | COc1cccc(NS(=O)(=O)c2ccc3c(c2)OCC(=O)N3)c1 [4d] |  | > 30000 nM | 
16 | COc1cccc(NS(=O)(=O)c2ccc3c(c2)CC(=O)N3C)c1 [4e] |  | > 30000 nM | 
17 | COc1cccc(NS(=O)(=O)c2ccc3c(c2)CCN3C(C)=O)c1 [4f] |  | 1150 ± 50 nM | loss of potency relative to VU625 (AeKir1; AeKir1 Tl+ flux): ~3 fold
18 | Cc1ccc(OCC(O)Cn2c(=N)n(Cc3ccccc3)c3ccccc32)cc1 (stereo not shown) [VU573] |  |  | toxicity when applied to the cuticle (mosquitoes): lack of topical activity; effect on AeKir2B (AeKir2B): activates AeKir2B; effect of hemolymph injection on mosquitoes [1]: incapacitation and/or death within 24 h; effect on excretory capacity [2]: decrease in the excretory capacity
19 | O=[N+]([O-])c1ccc(CN2CCOCCOCCN(Cc3ccc([N+](=O)[O-])cc3)CCOCC2)cc1 [VU590] |  |  | toxicity when applied to the cuticle (mosquitoes): lack of topical activity; effect on AeKir2B (AeKir2B): selective inhibitor of AeKir1 over AeKir2B; effect of hemolymph injection on mosquitoes [1]: incapacitation and/or death within 24 h; effect on excretory capacity [2]: decrease in the excretory capacity
20 | CCCN(CCC)S(=O)(=O)c1ccc(C(=O)O)cc1 [probenecid, reference compound] |  |  | excretory capacity (urine excreted) [3]: 467.8±33.53 nL/female
